Assay results from article PMC5640712 (Frontiers in Microbiology, 2017).

Experiments:
[1] = biological target: T1, Trypsin (porcine pancreas, Sigma-Aldrich) (Sus scrofa, UniProt P00761); test: Trypsin inhibition (IC50 measurement); assay type: biochemical; settings: at 1 h; 25°C; hydrolysis followed every 2 min for 1 h; inhibitor from 0 to 81.6 mM (so in the source); tested sample is purified Psp mixture, about 80% Psp A
T1 construct: purchased Sigma-Aldrich; host or cells: porcine pancreas
Protocol: Trypsin (porcine pancreas, Sigma-Aldrich) activity was measured at 25°C in a reaction mixture that contained from 0 to 81.6 mM leupeptin or pseudospumigin A and the hydrolysis was followed at every 2 min for 1 h, as described earlier (Liu et al., [2015]).

trypsin = settings: commercial trypsin inhibitor; ref Aoyagi et al., 1969; Kurinov and Harrison, 1996; cited from earlier work
Excerpt: Figure 6 Time dependence of trypsin inhibition efficiency (IC50) of pseudospumigin A [•, Psp A (3) + other Psp variants], nostosin A (♦, Ns A) and spumigin E (□, Sp A, from Fewer et al., [2013]). […] Time dependent inhibition is ...

T1 sequence (P00761 9-231): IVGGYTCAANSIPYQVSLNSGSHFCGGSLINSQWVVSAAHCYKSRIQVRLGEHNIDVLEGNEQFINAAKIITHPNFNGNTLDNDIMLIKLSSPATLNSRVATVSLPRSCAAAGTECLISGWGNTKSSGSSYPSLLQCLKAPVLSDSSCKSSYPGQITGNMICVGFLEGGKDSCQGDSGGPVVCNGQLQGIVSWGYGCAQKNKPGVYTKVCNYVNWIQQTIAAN

Compound | IC50 [1] | time dependence of trypsin interaction (trypsin)
CC[C@H](C)[C@H](NC(=O)[C@@H](CCc1ccc(O)cc1)NC(=O)[C@H](O)Cc1ccc(O)cc1)C(=O)NC(C=O)CCCNC(=N)N (some centres unmarked) [Pseudospumigin A] | 4.5 µM | 
Ac-Leu-Leu-Argininal [leupeptin] |  | interacts with trypsin without time dependency
